Experimental data: patent US20240382516A1, “PHARMACEUTICAL COMPOSITION FOR INCREASING MITOCHONDRIAL ACTIVITY AND/OR IMPROVING ADIPONECTIN PRODUCTION” (LOGICK ENERGETICS B.V., priority 2021, published 2024)

Assays:
Type in all cases: cell-based
[1] = tested on: Adiponectin gene expression in 3T3-L1 cells; assay: qPCR adiponectin gene expression in 3T3-L1 cells; conditions: 72 hours incubation, A 5.0 μg/ml, B 50 μM, C 1.0 μM
Method: • DMEM • 10% heat inactivated FCS • Compound A—5.0 μg/ml • Compound B-50 μM • Compound C-1.0 μM • Compound A+B • Compound A+C Protocol 3T3-L1 cell line • DMEM • 10% heat inactivated FCS • Compound A-[…] • Compound B-50 μM • Compound C-1.0 μM • Compound A+B • Compound A+C
In the of presence of: • 0.25 μM Dexamethasone & • 1 μg/ml Insulin • Therein A=pentosan, B=indomethacin, and C=pioglitazone.
Cells were stimulated at day 4 when they were sub confluent. After 72 hours of incubation, RNA was isolated from the cells.

[2] = tested on: Cox family of sub-unit proteins of mitochondrial complex 4; assay: Gene expression Log2fold change, Cox family, KS483 cells; conditions: 7 days of stimulation
Ppargc1a = Ppargc1a log2Foldchanges, RNA isolated from stimulated KS-cells; conditions: for effect on changes in Ppargc1a activity (in words): 3 and 7 days stimulation
From the text: Therein A=pentosan, B-indomethacin, and C=pioglitazone. The RNA is isolated after 3 and 7 days stimulation in KS-cells, respectively. Ppargcla is considered particularly relevant for mitochondrial activity. A higher value represents a higher activity.

[3] = tested on: Nduf family of sub-unit proteins of mitochondrial complex 1; assay: Gene expression Log2fold change, Nduf family, KS483 cells; conditions: 7 days of stimulation

## COc1ccc2c(c1)c(CC(=O)O)c(C)n2C(=O)c1ccc(Cl)cc1 [Compound B, indomethacin]
[1]
  effect on Adiponectin gene expression (FIG. 1): show adiponectin gene expression
[2]
  COX4iL Log2fold change: 0
  COX5a Log2fold change: 0
  COX5b Log2fold change: 0
  COX6b1 Log2fold change: 0
  COX7a2L Log2fold change: 0
  COX8a Log2fold change: 0
  COX15 Log2fold change: 0
  COX17 Log2fold change: 0
  COX19 Log2fold change: 0
  COX20 Log2fold change: 0
Ppargc1a
  effect on changes in Ppargc1a activity (in words): no measurable effect
[3]
  Nduf4 0 Log2fold change: 0
  Ndufa5 Log2fold change: 0
  Ndufa9 Log2fold change: 0
  Ndufa10 Log2fold change: 0
  Ndufab1 Log2fold change: 0
  Ndufaf7 Log2fold change: 0
  Ndufb3 Log2fold change: 0
  Ndufb4 Log2fold change: 0
  Ndufb9 Log2fold change: 0
  Ndufb10 Log2fold change: 0
  Ndufc1 Log2fold change: 0
  Ndufs10 Log2fold change: 0
  Ndufs20 Log2fold change: 0
  Ndufv1 Log2fold change: 0
  Ndufv3 Log2fold change: 0

## CCc1ccc(CCOc2ccc(CC3SC(=O)NC3=O)cc2)nc1 (stereo not drawn) [Compound C, pioglitazone]
[2]
  COX4iL Log2fold change: 0
  COX5a Log2fold change: 0
  COX5b Log2fold change: 0
  COX6b1 Log2fold change: 0
  COX7a2L Log2fold change: 0
  COX8a Log2fold change: 0
  COX15 Log2fold change: 0
  COX17 Log2fold change: 0
  COX19 Log2fold change: 0
  COX20 Log2fold change: 0
[3]
  Nduf4 0 Log2fold change: 0
  Ndufa5 Log2fold change: 0.57
  Ndufa9 Log2fold change: 0
  Ndufa10 Log2fold change: 0
  Ndufab1 Log2fold change: 0
  Ndufaf7 Log2fold change: 0.35
  Ndufb3 Log2fold change: 0
  Ndufb4 Log2fold change: 0
  Ndufb9 Log2fold change: 0
  Ndufb10 Log2fold change: 0
  Ndufc1 Log2fold change: 0
  Ndufs10 Log2fold change: 0
  Ndufs20 Log2fold change: 0
  Ndufv1 Log2fold change: 0
  Ndufv3 Log2fold change: 0

## pentosan polysulphate [Compound A]
[1]
  effect on Adiponectin gene expression (FIG. 1): hardly any effect
[2]
  COX4iL Log2fold change: 0
  COX5a Log2fold change: 0.31
  COX5b Log2fold change: 0
  COX6b1 Log2fold change: 0
  COX7a2L Log2fold change: −0.42
  COX8a Log2fold change: 0
  COX15 Log2fold change: 0
  COX17 Log2fold change: 0
  COX19 Log2fold change: 0
  COX20 Log2fold change: 0
Ppargc1a
  effect on changes in Ppargc1a activity (in words): some effect
Ppargc1a; 3 days stimulation
  Ppargc1a log2Foldchanges: 1.14
Ppargc1a; 7 days stimulation
  Ppargc1a log2Foldchanges: 1.3
[3]
  Nduf4 0 Log2fold change: 0
  Ndufa5 Log2fold change: 0
  Ndufa9 Log2fold change: 0
  Ndufa10 Log2fold change: 0
  Ndufab1 Log2fold change: 0
  Ndufaf7 Log2fold change: 0
  Ndufb3 Log2fold change: 0
  Ndufb4 Log2fold change: 0
  Ndufb9 Log2fold change: 0
  Ndufb10 Log2fold change: 0
  Ndufc1 Log2fold change: 0
  Ndufs10 Log2fold change: 0
  Ndufs20 Log2fold change: 0
  Ndufv1 Log2fold change: 0
  Ndufv3 Log2fold change: 0
